# From article PMC8708032, “Fragment-Based Ligand Discovery Applied to the Mycolic Acid Methyltransferase Hma (MmaA4) from Mycobacterium tuberculosis: A Crystallographic and Molecular Modelling Study” (Pharmaceuticals, 2021)
# Target: Hma (MmaA4) (Mycobacterium tuberculosis, UniProt Q79FX8)
# Sequence (Q79FX8 4-301): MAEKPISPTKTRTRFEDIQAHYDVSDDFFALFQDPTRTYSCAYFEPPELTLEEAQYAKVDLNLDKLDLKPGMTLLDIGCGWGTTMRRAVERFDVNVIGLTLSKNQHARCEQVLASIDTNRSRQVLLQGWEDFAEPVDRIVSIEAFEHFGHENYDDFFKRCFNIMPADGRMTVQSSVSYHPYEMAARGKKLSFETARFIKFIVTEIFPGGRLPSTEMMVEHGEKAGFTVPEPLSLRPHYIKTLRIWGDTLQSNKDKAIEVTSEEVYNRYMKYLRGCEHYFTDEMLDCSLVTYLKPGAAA
compound,measurement,value
O=Cc1ccc2cccc(O)c2n1 [ZT726],"X-ray crystallography, fragment soak, PanDDA","A second molecule of the ZT260 and ZT320 fragments is located at this position, as well as ZT726"
